Structures can show the parent of a compound that is named as a salt. Where two headings read alike, the source gives them in different places. Marks after values point to notes of the source that are not given here.
What was measured:
[1] = biological target: EAAT1 (endogenous, MDA-MB-468 cells) (Homo sapiens, UniProt P43003); assay: Impedance-based phenotypic assay on MDA-MB-468 cells; format: cell-based
Protocol: MDA-MB-468 cells were cultured as adherent cells in DMEM containing 10% (v/v) FCS, 2 mM Glutamax, 100 IU/ml penicillin and 100 μg/ml streptomycin (culture medium) at 37°C and 5% CO2. Cells were split twice weekly at 1:3–1:4 ratios in 10 cm culture dishes.
In short, cells are cultured in medium on gold-plated electrodes in microwell E-plates.
Assays were performed at 37°C and 5% CO2 in 96-well PET E-plates in a total volume of 100 µl per well. Prior to cell seeding, the baseline impedance (Z0) was measured in the recording station in 40 µl (two compound additions) or 45 µl (one compound addition) medium in the presence (+) or absence (−) of 1 μg/ml dox. All compounds were diluted in phosphate-buffered saline (PBS) and added in 5 µl per addition using a VIAFLO 96 handheld electronic 96 channel pipette (INTEGRA Biosciences, Tokyo, Japan). When DMSO was used as a solvent for a compound, the final amount of DMSO was kept at 0.1% per well and was included in the vehicle (PBS/DMSO). All conditions were tested at two technical replicates per plate.
Experimental data was recorded using RTCA Software v2.0 or v2.1.1 (ACEA Biosciences). In the RTCA Software CI values were normalized to the time point prior to substrate/agonist stimulation resulting in normalized Cell Index (nCI) values. The nCI data were exported and subsequent analyses and data visualizations were done using GraphPad Prism v9 (GraphPad Software, San Diego, CA, United States). In all experiments, nCI values of vehicle-only conditions were subtracted from all other conditions to correct for vehicle-induced, substrate-independent effects. […] The potency values of substrates and inhibitory potencies of EAAT inhibitors were determined by fitting the net AUC data to a sigmoidal concentration-effect curve with a variable slope.

[2] = biological target: T1, EAAT2 (JumpIn-EAAT2 cells) (Homo sapiens, UniProt P43004); assay: Impedance-based phenotypic assay (xCELLigence) on JumpIn-EAAT2 cells; format: cell-based; settings: net AUC 0–120 min, read-out: Substrate pEC50 ± SEM (converted)
T1 construct: expressed in transfected cells; host or cells: Jump In T-REx HEK 293

[3] = biological target: T2, EAAT1 / mGluR2 (JumpIn-EAAT1-mGluR2 cells) (Homo sapiens, UniProt P43003); assay: Impedance-based TRACT assay (xCELLigence) on JumpIn-EAAT1-mGluR2 cells; format: cell-based
T2 construct: FLAG-tag (N); expressed in transfected cells; host or cells: Jump In T-REx HEK 293 (JumpIn-EAAT1), transiently transfected with mGluR2 cDNA

[4] = test system: EAAT1 / mGluR2 (JumpIn-EAAT1-mGluR2 cells); assay: as above; format: cell-based, human; settings: for Substrate pEC50 ± SEM (AUC = 0–15 min): JumpIn-EAAT1-mGluR2, +dox

T1 sequence (P43004 whole entry): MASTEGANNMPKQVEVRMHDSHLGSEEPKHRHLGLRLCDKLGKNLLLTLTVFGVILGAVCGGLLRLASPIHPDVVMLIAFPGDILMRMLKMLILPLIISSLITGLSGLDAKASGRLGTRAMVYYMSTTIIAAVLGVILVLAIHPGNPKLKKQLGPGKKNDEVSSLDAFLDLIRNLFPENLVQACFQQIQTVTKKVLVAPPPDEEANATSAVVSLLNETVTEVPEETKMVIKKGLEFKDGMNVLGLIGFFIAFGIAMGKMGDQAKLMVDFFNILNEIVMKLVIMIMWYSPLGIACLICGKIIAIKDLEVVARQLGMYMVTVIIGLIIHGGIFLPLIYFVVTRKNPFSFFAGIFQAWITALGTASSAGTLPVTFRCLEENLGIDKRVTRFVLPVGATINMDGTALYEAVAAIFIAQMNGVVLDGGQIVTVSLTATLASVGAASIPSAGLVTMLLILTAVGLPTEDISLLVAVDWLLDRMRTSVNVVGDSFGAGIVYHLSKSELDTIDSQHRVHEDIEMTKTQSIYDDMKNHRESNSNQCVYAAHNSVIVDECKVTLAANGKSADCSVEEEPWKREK
EAAT1 (endogenous, MDA-MB-468 cells), sequence (P43003 whole entry): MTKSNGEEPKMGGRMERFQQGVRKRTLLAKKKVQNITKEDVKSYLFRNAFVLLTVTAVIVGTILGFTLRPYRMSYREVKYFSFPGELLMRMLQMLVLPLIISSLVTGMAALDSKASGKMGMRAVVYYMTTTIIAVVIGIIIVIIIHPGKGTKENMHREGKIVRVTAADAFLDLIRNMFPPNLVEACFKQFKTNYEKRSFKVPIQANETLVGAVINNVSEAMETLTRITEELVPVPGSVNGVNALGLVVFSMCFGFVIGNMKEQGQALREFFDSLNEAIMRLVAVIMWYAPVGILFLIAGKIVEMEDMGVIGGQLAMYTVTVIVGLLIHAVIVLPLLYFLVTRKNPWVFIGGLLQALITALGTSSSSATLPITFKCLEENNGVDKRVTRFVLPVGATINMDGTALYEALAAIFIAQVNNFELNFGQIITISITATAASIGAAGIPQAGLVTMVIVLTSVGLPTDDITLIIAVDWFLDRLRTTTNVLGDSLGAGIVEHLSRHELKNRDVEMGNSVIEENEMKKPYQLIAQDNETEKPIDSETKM
T2 sequence (P43003 whole entry, the tested form may be a part): as the sequence (P43003 whole entry) above

N[C@@H](CCC(=O)O)C(=O)O [L-glutamate, L-glutamic acid monosodium salt monohydrate]
Substrate pEC50 ± SEM [1]: 4.0 ± 0.2 ^b | EC50 ([2]; JumpIn-EAAT2, +dox): 251 µM | EC50 ([2]; JumpIn-EAAT2, −dox): 158 µM | EC50 [3]: 501 µM | Substrate pEC50 ± SEM (AUC = 0–15 min) ([4]; no inhibitor, net AUC 0–15 min): <3.0 | Substrate pEC50 ± SEM (AUC = 0–15 min) ([4]; pretreated 1 h with 10 µM UCPH-101, net AUC 0–15 min): 3.7 ± 0.2 | Substrate pEC50 ± SEM (AUC = 0–120 min) ([4]; JumpIn-EAAT1-mGluR2, −dox, no inhibitor, net AUC 0–120 min): 4.3 ± 0.1

Source: article PMC9169222, “Impedance-Based Phenotypic Readout of Transporter Function: A Case for Glutamate Transporters” (Frontiers in Pharmacology, 2022)
